In ChEMBL document CHEMBL4196087 (Eur J Med Chem, 2018):

How the values were obtained:
[1] = tested on: MOLT-4; test: Growth inhibition of human MOLT4 cells at 10^-5 M incubated for 48 hrs by sulforhodamine B assay relative to control; assay type: functional; conditions: MOLT-4, 48 h, read-out: GI
[2] = tested on: SF-539; test: Growth inhibition of human SF539 cells at 10^-5 M incubated for 48 hrs by sulforhodamine B assay relative to control; assay type: functional; conditions: SF-539, 48 h, read-out: GI
[3] = tested on: HOP-92; test: Growth inhibition of human HOP92 cells at 10^-5 M incubated for 48 hrs by sulforhodamine B assay relative to control; assay type: functional; conditions: HOP-92, 48 h, read-out: GI
[4] = tested on: UO-31; test: Antiproliferative activity against human UO31 cells after 48 hrs by MTT assay; assay type: functional, cell-based; conditions: UO-31, 48 h
[5] = tested on: MDA-MB-468; test: Growth inhibition of human MDA-MB-468 cells at 10^-5 M incubated for 48 hrs by sulforhodamine B assay relative to control; assay type: functional; conditions: MDA-MB-468, 48 h, read-out: GI
[6] = tested on: MCF7; test: Growth inhibition of human MCF7 cells at 10^-5 M incubated for 48 hrs by sulforhodamine B assay relative to control; assay type: functional; conditions: MCF7, 48 h, read-out: GI
[7] = tested on: CCRF-CEM; test: Growth inhibition of human CCRF-CEM cells at 10^-5 M incubated for 48 hrs by sulforhodamine B assay relative to control; assay type: functional; conditions: read-out: GI
[8] = tested on: MDA-MB-231; test: Growth inhibition of human MDA-MB-231 cells at 10^-5 M incubated for 48 hrs by sulforhodamine B assay relative to control; assay type: functional; conditions: MDA-MB-231, 48 h, read-out: GI
[9] = tested on: SK-MEL-5; test: Growth inhibition of human SK-MEL-5 cells at 10^-5 M incubated for 48 hrs by sulforhodamine B assay relative to control; assay type: functional; conditions: SK-MEL-5, 48 h, read-out: GI
[10] = tested on: SNB-75; test: Growth inhibition of human SNB75 cells at 10^-5 M incubated for 48 hrs by sulforhodamine B assay relative to control; assay type: functional; conditions: SNB-75, 48 h, read-out: GI
[11] = tested on: HOP-62; test: Growth inhibition of human HOP62 cells at 10^-5 M incubated for 48 hrs by sulforhodamine B assay relative to control; assay type: functional; conditions: HOP-62, 48 h, read-out: GI
[12] = tested on: HL-60(TB); test: Growth inhibition of human HL-60(TB) cells at 10^-5 M incubated for 48 hrs by sulforhodamine B assay relative to control; assay type: functional; conditions: HL-60, 48 h, read-out: GI
[13] = tested on: MDA-MB-468; test: Antiproliferative activity against human MDA-MB-468 cells after 48 hrs by SRB assay; assay type: functional; conditions: MDA-MB-468, 48 h, read-out: LC50 (the source's name)
[14] = tested on: NCI-H226; test: Growth inhibition of human NCI-H226 cells at 10^-5 M incubated for 48 hrs by sulforhodamine B assay relative to control; assay type: functional; conditions: NCI-H226, 48 h, read-out: GI
[15] = tested on: PC-3; test: Growth inhibition of human PC3 cells at 10^-5 M incubated for 48 hrs by sulforhodamine B assay relative to control; assay type: functional; conditions: PC-3, 48 h, read-out: GI
[16] = tested on: MDA-MB-468; test: Antiproliferative activity against human MDA-MB-468 cells after 48 hrs by MTT assay; assay type: functional, cell-based; conditions: MDA-MB-468, 48 h
[17] = tested on: IGROV-1; test: Growth inhibition of human IGROV1 cells at 10^-5 M incubated for 48 hrs by sulforhodamine B assay relative to control; assay type: functional; conditions: IGROV-1, 48 h, read-out: GI
[18] = tested on: K562; test: Growth inhibition of human K562 cells at 10^-5 M incubated for 48 hrs by sulforhodamine B assay relative to control; assay type: functional; conditions: K562, 48 h, read-out: GI
[19] = tested on: T47D; test: Growth inhibition of human T47D cells at 10^-5 M incubated for 48 hrs by sulforhodamine B assay relative to control; assay type: functional; conditions: read-out: GI
[20] = tested on: UO-31; test: Potency index, ratio of doxorubicin IC50 to compound IC50 for antiproliferative activity against human UO31 cells; assay type: functional
[21] = tested on: UO-31; test: Growth inhibition of human UO31 cells at 10^-5 M incubated for 48 hrs by sulforhodamine B assay relative to control; assay type: functional; conditions: UO-31, 48 h, read-out: GI
[22] = tested on: A498; test: Growth inhibition of human A498 cells at 10^-5 M incubated for 48 hrs by sulforhodamine B assay relative to control; assay type: functional; conditions: A498, 48 h, read-out: GI
[23] = tested on: UO-31; test: Antiproliferative activity against human UO31 cells after 48 hrs by SRB assay; assay type: functional; conditions: UO-31, 48 h
[24] = tested on: LOX IMVI; test: Growth inhibition of human LOXIMVI cells at 10^-5 M incubated for 48 hrs by sulforhodamine B assay relative to control; assay type: functional; conditions: read-out: GI
[25] = tested on: RPMI-8226; test: Growth inhibition of human RPMI8226 cells at 10^-5 M incubated for 48 hrs by sulforhodamine B assay relative to control; assay type: functional; conditions: RPMI-8226, 48 h, read-out: GI
[26] = tested on: Escherichia coli; test: Antibacterial activity against Escherichia coli at 37 degC measured after 24 hrs by agar disc diffusion method; assay type: functional
[27] = tested on: Bacillus subtilis; test: Antibacterial activity against Bacillus subtilis at 37 degC measured after 24 hrs by agar disc diffusion method; assay type: functional
[28] = tested on: Staphylococcus aureus; test: Antibacterial activity against Staphylococcus aureus at 37 degC measured after 24 hrs by agar disc diffusion method; assay type: functional
[29] = tested on: Pseudomonas aeruginosa; test: Antibacterial activity against Pseudomonas aeruginosa at 37 degC measured after 24 hrs by agar disc diffusion method; assay type: functional
[30] = tested on: MDA-MB-468; test: Potency index, ratio of doxorubicin IC50 to compound IC50 for antiproliferative activity against human MDA-MB-468 cells; assay type: functional
[31] = tested on: UO-31; test: Induction of apoptosis in human UO31 cells assessed as live cells at 0.75 uM after 24 hrs by Annexin V-FITC/propidium iodide staining based low cytometry (reference value: 97.84%); assay type: functional
[32] = tested on: UO-31; test: Induction of apoptosis in human UO31 cells assessed as late apoptotic cells at 0.75 uM after 24 hrs by Annexin V-FITC/propidium iodide staining based flow cytometry (reference value: 0.22%); assay type: functional
[33] = tested on: UO-31; test: Cell cycle arrest in human UO31 cells assessed as apoptotic cells at 0.75 uM after 24 hrs by propidium iodide staining based flow cytometry (reference value: 0.49%); assay type: functional
[34] = tested on: UO-31; test: Induction of apoptosis in human UO31 cells assessed as early apoptotic cells at 0.75 uM after 24 hrs by Annexin V-FITC/propidium iodide staining based flow cytometry (reference value: 0.19%); assay type: functional
[35] = molecular target: T1, DNA topoisomerase 2-beta (Homo sapiens, UniProt Q02880); test: Potency index, ratio of amsacrine IC50 to compound IC50 for inhibition of human topoisomerase-2B
[36] = tested on: UO-31; test: Cell cycle arrest in human UO31 cells assessed as accumulation at pre-G1 phase at 0.75 uM after 24 hrs by propidium iodide staining based flow cytometry relative to control; assay type: functional
[37] = tested on: UO-31; test: Induction of apoptosis in human UO31 cells assessed as necrotic cells at 0.75 uM after 24 hrs by Annexin V-FITC/propidium iodide staining based flow cytometry (reference value: 0.08%); assay type: functional
[38] = tested on: UO-31; test: Cell cycle arrest in human UO31 cells assessed as accumulation at G1 phase at 0.75 uM after 24 hrs by propidium iodide staining based flow cytometry (reference value: 69.55%); assay type: functional
[39] = tested on: UO-31; test: Induction of apoptosis in human UO31 cells assessed as caspase-3 activation by measuring active caspase-3 level at 0.75 uM by […] (reference value: 66 pg/ml); assay type: functional
[40] = tested on: UO-31; test: Cell cycle arrest in human UO31 cells assessed as accumulation at S phase at 0.75 uM after 24 hrs by propidium iodide staining based flow cytometry (reference value: 24.47%); assay type: functional
[41] = molecular target: T1, DNA topoisomerase 2-beta; test: Inhibition of human topoisomerase-2B after 2 hrs by ELISA
[42] = tested on: UO-31; test: Cell cycle arrest in human UO31 cells assessed as accumulation at G2 phase at 0.75 uM after 24 hrs by propidium iodide staining based flow cytometry (reference value: 5.49%); assay type: functional
[43] = molecular target: T1, DNA topoisomerase 2-beta; test: Potency index, ratio of doxorubicin IC50 to compound IC50 for inhibition of human topoisomerase-2B
[44] = molecular target: T1, DNA topoisomerase 2-beta; test: Potency index, ratio of etoposide IC50 to compound IC50 for inhibition of human topoisomerase-2B
[45] = tested on: UO-31; test: Cell cycle arrest in human UO31 cells assessed as accumulation at G2/M phase at 0.75 uM after 24 hrs by propidium iodide staining based flow cytometry relative to control; assay type: functional

T1 sequence (Q02880 whole entry): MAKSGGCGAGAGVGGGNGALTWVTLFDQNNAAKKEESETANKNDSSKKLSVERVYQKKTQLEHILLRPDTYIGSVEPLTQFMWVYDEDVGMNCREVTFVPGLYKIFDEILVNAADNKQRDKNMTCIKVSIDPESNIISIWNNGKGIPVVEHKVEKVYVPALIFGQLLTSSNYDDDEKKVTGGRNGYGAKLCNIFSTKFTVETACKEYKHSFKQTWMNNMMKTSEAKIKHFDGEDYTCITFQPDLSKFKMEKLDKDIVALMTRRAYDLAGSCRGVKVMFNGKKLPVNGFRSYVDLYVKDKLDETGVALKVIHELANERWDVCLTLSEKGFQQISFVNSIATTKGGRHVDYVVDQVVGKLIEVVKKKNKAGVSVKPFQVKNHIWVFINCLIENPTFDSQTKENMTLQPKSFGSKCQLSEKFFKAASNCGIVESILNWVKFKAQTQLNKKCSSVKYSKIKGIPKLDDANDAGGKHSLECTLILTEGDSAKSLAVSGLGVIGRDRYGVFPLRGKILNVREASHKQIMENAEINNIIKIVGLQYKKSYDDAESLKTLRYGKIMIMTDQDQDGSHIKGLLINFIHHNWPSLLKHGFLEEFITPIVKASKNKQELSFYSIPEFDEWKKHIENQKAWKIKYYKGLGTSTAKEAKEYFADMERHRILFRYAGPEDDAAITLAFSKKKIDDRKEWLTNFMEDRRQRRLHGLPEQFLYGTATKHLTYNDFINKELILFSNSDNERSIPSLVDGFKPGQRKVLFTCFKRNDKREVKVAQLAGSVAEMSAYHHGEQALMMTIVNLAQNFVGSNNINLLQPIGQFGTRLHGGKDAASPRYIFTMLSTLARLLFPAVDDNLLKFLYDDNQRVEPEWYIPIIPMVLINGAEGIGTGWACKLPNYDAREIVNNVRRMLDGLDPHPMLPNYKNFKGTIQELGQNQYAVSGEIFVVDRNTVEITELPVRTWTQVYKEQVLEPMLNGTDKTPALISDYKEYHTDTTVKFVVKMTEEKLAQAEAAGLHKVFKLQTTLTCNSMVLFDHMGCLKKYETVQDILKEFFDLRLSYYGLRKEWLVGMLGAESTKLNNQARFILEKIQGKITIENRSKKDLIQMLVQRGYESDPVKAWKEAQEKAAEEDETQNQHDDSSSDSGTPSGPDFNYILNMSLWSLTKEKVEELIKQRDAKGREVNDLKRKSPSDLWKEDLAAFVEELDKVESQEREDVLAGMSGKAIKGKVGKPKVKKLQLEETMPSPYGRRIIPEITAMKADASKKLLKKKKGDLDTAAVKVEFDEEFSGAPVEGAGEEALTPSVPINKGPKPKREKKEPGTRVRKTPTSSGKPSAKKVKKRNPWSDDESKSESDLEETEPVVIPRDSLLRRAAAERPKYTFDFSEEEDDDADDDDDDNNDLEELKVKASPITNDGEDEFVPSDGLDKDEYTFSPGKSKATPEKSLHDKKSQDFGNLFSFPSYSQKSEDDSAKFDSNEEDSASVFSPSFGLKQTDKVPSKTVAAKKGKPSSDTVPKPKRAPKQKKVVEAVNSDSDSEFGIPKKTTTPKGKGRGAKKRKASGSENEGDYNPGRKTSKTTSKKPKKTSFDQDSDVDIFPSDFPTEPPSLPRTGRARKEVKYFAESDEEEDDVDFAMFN

`O=C(CN1CCN(c2cc3c(cc2F)c(=O)c(C(=O)O)cn3C2CC2)CC1)N/N=C/c1ccccc1C(F)(F)F` gave an inhibition of growth at 10 µM [1] of 27.3%, an inhibition of growth at 10 µM [2] of 22.5% and an inhibition of growth at 10 µM [3] of 35.9%. The IC50 [4] was 4.92 µM, the inhibition of growth at 10 µM [5] was 34.7% and the inhibition of growth at 10 µM [6] was under 20%. It also gave an inhibition of growth at 10 µM [7] of under 20%, an inhibition of growth at 10 µM [8] of 23.6% and an inhibition of growth at 10 µM [9] of 22.1%. It also gave an inhibition of growth at 10 µM [10] of 29.9%, an inhibition of growth at 10 µM [11] of under 20% and an inhibition of growth at 10 µM [12] of under 20%. It also gave a CC50 [13] of 15.6 µM, an inhibition of growth at 10 µM [14] of under 20% and an inhibition of growth at 10 µM [15] of 24.9%. For the same compound, the IC50 [16] was 2.16 µM, the inhibition of growth at 10 µM [17] was 33.4% and the inhibition of growth at 10 µM [18] was 21.2%. For the same compound, the inhibition of growth at 10 µM [19] was 25.1%, the “Ratio IC50” value [20] was 1.5 - 9 and the inhibition of growth at 10 µM [21] was 37.4%. It also gave an inhibition of growth at 10 µM [22] of 20.7%, an LC50 [23] of 15.9 µM and an inhibition of growth at 10 µM [24] of 32.3%. For the same compound, the inhibition of growth at 10 µM [25] was 25%, the “diameter of the inhibition zone (DIZ)” value [26] was 26 mm and the “diameter of the inhibition zone (DIZ)” value [27] was 28 mm. The “diameter of the inhibition zone (DIZ)” value [28] was 25 mm, the “diameter of the inhibition zone (DIZ)” value [29] was 25 mm and the “Ratio IC50” value [30] was 1.3.

With `O=C(CN1CCN(c2cc3c(cc2F)c(=O)c(C(=O)O)cn3C2CC2)CC1)N/N=C/c1ccc(O)cc1O` the IC50 [4] was 3.19 µM, the “Ratio IC50” value [20] was 1.5 - 9 and the LC50 [23] was 13 µM. For the same compound, the “diameter of the inhibition zone (DIZ)” value [26] was 20 mm, the “diameter of the inhibition zone (DIZ)” value [27] was 24 mm and the “diameter of the inhibition zone (DIZ)” value [28] was 21 mm. The “diameter of the inhibition zone (DIZ)” value [29] was 23 mm.

Work on `O=C(CN1CCN(c2cc3c(cc2F)c(=O)c(C(=O)O)cn3C2CC2)CC1)N/N=C/c1ccccc1O` yielded an Activity [31] of 91.8%, an IC50 [4] of 0.75 µM and an Activity [32] of 3.32%. For the same compound, the Activity [33] was 6.83%, the Activity [34] was 2.64% and the Ratio IC50 [35] was 5. The “fold change (FC)” value [36] was 13.9, the Activity [37] was 0.87% and the Activity [38] was 59.87%. The Activity [39] was 346.4 pg/mL, the “Ratio IC50” value [20] was 1.5 - 9 and the Activity [40] was 22.02%. For the same compound, the LC50 [23] was 15.2 µM, the IC50 [41] was 0.58 µM and the Activity [42] was 11.28%. For the same compound, the Ratio IC50 [43] was 6, the “diameter of the inhibition zone (DIZ)” value [26] was 16 mm and the “diameter of the inhibition zone (DIZ)” value [27] was 18 mm. The Ratio IC50 [44] was 1.5, the “diameter of the inhibition zone (DIZ)” value [28] was 15 mm and the “diameter of the inhibition zone (DIZ)” value [29] was 17 mm. For the same compound, the “fold change (FC)” value [45] was 2.05.
